{"source": "patent USRE39192E1", "about": "“Supplemented and unsupplemented tissue sealants, methods of their production and use” (American National Red Cross, priority 1990, dated 2006)", "key": {"NIH 3T3 fibroblasts": {"test_system": "NIH 3T3 fibroblasts", "test": "Cell chemotaxis assay (modified Boyden's chamber), NIH 3T3 fibroblasts", "assay_type": "cell-based", "excerpt": "(§1) NIH/3T3 fibroblasts at passage 126 were purchased from the American Type Culture Collection, Rockville, Md. Cultures from passages 129-133 were used in the chemotaxis assays. Cultures were propagated in DMEM supplemented with 10%. Calf serum and approximately 1% antibiotic antimycotic solution. Human dermal fibroblasts (HDFs) were purchased from Clonetics, Inc. (San Diego, Calif.) at passage 2. Cultures from passages 3-5 were used in the chemotaxis assays. Cultures were cultivated in DMEM supplemented with 20% FBS (Hyclone Laboratories, Inc., Logan, Utah) and approximately 1% antibiotic antimycotic solution (Gibco, Grand Island, N.Y.).\nThe procedure used to determine cellular chemotaxis was a combination of two known methodologies. A modification of Boyden's chamber was used as follows: Millicell-PCF (Millipore, Inc., Bedford, Mass.) (12.0 μm) 12.0 mm diameter inserts were placed in individual wells of 24 well plates to create the upper and lower chemotaxis chambers. Chemotaxis results were arrived at by performing checkerboard analysis for every combination of cells and growth factors. […] Briefly, cultures were trypsanized and placed in DMEM+0.1% Bovine Serum Albumin (BSA) (Sigma Chemical Co., St. Louis, Mo.) for approximately one hour at 37° C. in a 5% CO2 humidified chamber. Tow to 2.5×10^5 cells in 50 μl were added per insert to the upper chamber of the setup of the 24 well plates. Treatments were added as mentioned above. The assay was kept at 37° C. in a 5% CO2 humidified chamber for 4 hours. All combinations tested were performed in triplicate. At the end of 4 hours, the plates were removed from the incubator and the filters were stained following the protocol for staining included with the Millicell-PCT inserts. Briefly, the fluid surrounding the inside and outside of the Millicell-PCF inserts were removed. Three percent glutaraldehyde (Sigma Chemical Co., St. Louis, Mo.) was added to the outside and inside of the inserts for approximately 20 minutes. Following removal of the 3.0% glutaraldehyde, 0.5% Triton X-100 (E.M. Science, Cherry Hill, N.J.) was added for 5-7 minutes. On removal of the 0.5% Triton X-100, Fisher's Hematoxylin Solution Gill's Formulation (Fisher Scientific, Newark, Del.) No.1 was added for about 10 minutes. This solution was washed off in running distilled water for about 5 minutes. Using a cotton swab the upper side of the filter was swabbed to remove cells which had not migrated. Filters, were mounted lower side facing up on slides in Crystal Mount™ (Biomedia, Inc., Foster City, Calif.) solution and 10 random field were counted per slide both visually at 400× and at 200×using an Image Analyzing System to automate the enumeration of the cells on the underside of the filters.\n(§2) As required, checkerboard analysis was carried out to determine random migration, and positive and negative chemotaxis. Growth factors were added to the upper and/or lower chambers to observe whether cells migrated towards the GF alone (chemotaxis), whether migration was random irrespective of whether the growth factor was added to the upper or lower well (chemokinesis) or whether cell migration was against the chemotactic gradient (negative chemotaxis)."}, "[1]": {"test_system": "human dermal fibroblasts (HDFs)", "test": "Cell chemotaxis assay (modified Boyden's chamber), human dermal fibroblasts", "assay_type": "cell-based", "excerpt": "as §1\nThe procedure used to determine cellular chemotaxis was a combination of two known methodologies. A modification of Boyden's chamber was used as follows: Millicell-PCF (Millipore, Inc., Bedford, Mass.) (12.0 μm) 12.0 mm diameter inserts were placed in individual wells of 24 well plates to create the upper and lower chemotaxis chambers. Chemotaxis results were arrived at by performing checkerboard analysis for every combination of cells and growth factors. Concentrations ranging from 0.1, 1, 10, 100 ng/ml with/without added heparin (10 U/ml) were used for FGF-1, FGF-2 (no heparin) and FGF-4 with all the cell types mentioned in the materials section. Briefly, cultures were trypsanized and placed in DMEM+0.1% Bovine Serum Albumin (BSA) (Sigma Chemical Co., St. Louis, Mo.) for approximately one hour at 37° C. in a 5% CO2 humidified chamber. Tow to 2.5×10^5 cells in 50 μl were added per insert to the upper chamber of the setup of the 24 well plates. Treatments were added as mentioned above. The assay was kept at 37° C. in a 5% CO2 humidified chamber for 4 hours. All combinations tested were performed in triplicate. At the end of 4 hours, the plates were removed from the incubator and the filters were stained following the protocol for staining included with the Millicell-PCT inserts. Briefly, the fluid surrounding the inside and outside of the Millicell-PCF inserts were removed. Three percent glutaraldehyde (Sigma Chemical Co., St. Louis, Mo.) was added to the outside and inside of the inserts for approximately 20 minutes. Following removal of the 3.0% glutaraldehyde, 0.5% Triton X-100 (E.M. Science, Cherry Hill, N.J.) was added for 5-7 minutes. On removal of the 0.5% Triton X-100, Fisher's Hematoxylin Solution Gill's Formulation (Fisher Scientific, Newark, Del.) No.1 was added for about 10 minutes. This solution was washed off in running distilled water for about 5 minutes. Using a cotton swab the upper side of the filter was swabbed to remove cells which had not migrated. Filters, were mounted lower side facing up on slides in Crystal Mount™ (Biomedia, Inc., Foster City, Calif.) solution and 10 random field were counted per slide both visually at 400× and at 200×using an Image Analyzing System to automate the enumeration of the cells on the underside of the filters.\nas §2"}}, "data": [{"substance": "HBGF-1: heparin binding growth factor-1, also known as ECGF and FGF-1; recombinant HBGF-1β expressed in E. coli", "values": [{"measurement": "checkerboard analysis", "setting": "NIH 3T3 fibroblasts", "result": "chemotactic"}, {"measurement": "concentration of maximum stimulation of migration", "setting": "NIH 3T3 fibroblasts; FGF-1 in the presence of 10 U/ml heparin", "result": 10, "unit": "ng/mL"}, {"measurement": "migrated cells (checkerboard analysis)", "setting": "NIH 3T3 fibroblasts; lower 0 ng/ml, upper 1 ng/ml", "result": "53.93 +/− 4.152"}, {"measurement": "migrated cells (checkerboard analysis)", "setting": "NIH 3T3 fibroblasts; lower 0 ng/ml, upper 5 ng/ml", "result": "27.27 +/− 3.873"}, {"measurement": "migrated cells (checkerboard analysis)", "setting": "NIH 3T3 fibroblasts; lower 0 ng/ml, upper 10 ng/ml", "result": "25.96 +/− 4.151"}, {"measurement": "migrated cells (checkerboard analysis)", "setting": "NIH 3T3 fibroblasts; lower 1 ng/ml, upper 0 ng/ml", "result": "59.46 +/− 6.89"}, {"measurement": "migrated cells (checkerboard analysis)", "setting": "NIH 3T3 fibroblasts; lower 1 ng/ml, upper 1 ng/ml", "result": "36.9 +/− 5.728"}, {"measurement": "migrated cells (checkerboard analysis)", "setting": "NIH 3T3 fibroblasts; lower 1 ng/ml, upper 5 ng/ml", "result": "22.1 +/− 9.232"}, {"measurement": "migrated cells (checkerboard analysis)", "setting": "NIH 3T3 fibroblasts; lower 1 ng/ml, upper 10 ng/ml", "result": "35.86 +/− 2.074"}, {"measurement": "migrated cells (checkerboard analysis)", "setting": "NIH 3T3 fibroblasts; lower 5 ng/ml, upper 0 ng/ml", "result": "64.867 +/− 1.75"}, {"measurement": "migrated cells (checkerboard analysis)", "setting": "NIH 3T3 fibroblasts; lower 5 ng/ml, upper 1 ng/ml", "result": "41.44 +/− 1.866"}, {"measurement": "migrated cells (checkerboard analysis)", "setting": "NIH 3T3 fibroblasts; lower 5 ng/ml, upper 5 ng/ml", "result": "24.84 +/− 4.337"}, {"measurement": "migrated cells (checkerboard analysis)", "setting": "NIH 3T3 fibroblasts; lower 5 ng/ml, upper 10 ng/ml", "result": "41.6 +/− 6.717"}, {"measurement": "migrated cells (checkerboard analysis)", "setting": "NIH 3T3 fibroblasts; lower 10 ng/ml, upper 0 ng/ml", "result": "70.83 +/− 2.752"}, {"measurement": "migrated cells (checkerboard analysis)", "setting": "NIH 3T3 fibroblasts; lower 10 ng/ml, upper 1 ng/ml", "result": "39.73 +/− 2.428"}, {"measurement": "migrated cells (checkerboard analysis)", "setting": "NIH 3T3 fibroblasts; lower 10 ng/ml, upper 5 ng/ml", "result": "39.73 +/− 2.428"}, {"measurement": "migrated cells (checkerboard analysis)", "setting": "NIH 3T3 fibroblasts; lower 10 ng/ml, upper 10 ng/ml", "result": "41.83 +/− 6.879"}, {"measurement": "checkerboard analysis", "setting": "[1]", "result": "chemotactic"}, {"measurement": "maximal migratory response over negative control", "setting": "[1]", "result": 18, "unit": "fold"}, {"measurement": "migrated cells (checkerboard analysis)", "setting": "[1]; lower 0 ng/ml, upper 0.1 ng/ml", "result": "48. +/− 1.965"}, {"measurement": "migrated cells (checkerboard analysis)", "setting": "[1]; lower 0 ng/ml, upper 1 ng/ml", "result": "1.3 +/− 0.351"}, {"measurement": "migrated cells (checkerboard analysis)", "setting": "[1]; lower 0 ng/ml, upper 10 ng/ml", "result": "4.6 +/− 2.424"}, {"measurement": "migrated cells (checkerboard analysis)", "setting": "[1]; lower 0 ng/ml, upper 100 ng/ml", "result": "2.4 +/− 2.59"}, {"measurement": "migrated cells (checkerboard analysis)", "setting": "[1]; lower 0.1 ng/ml, upper 0 ng/ml", "result": "66.46 +/− 3.304"}, {"measurement": "migrated cells (checkerboard analysis)", "setting": "[1]; lower 0.1 ng/ml, upper 0.1 ng/ml", "result": "3.5 +/− 1.550"}, {"measurement": "migrated cells (checkerboard analysis)", "setting": "[1]; lower 0.1 ng/ml, upper 1 ng/ml", "result": "22.0 +/− 6.621"}, {"measurement": "migrated cells (checkerboard analysis)", "setting": "[1]; lower 0.1 ng/ml, upper 10 ng/ml", "result": "9.7 +/− 7.758"}, {"measurement": "migrated cells (checkerboard analysis)", "setting": "[1]; lower 0.1 ng/ml, upper 100 ng/ml", "result": "11.6 +/− 8.609"}, {"measurement": "migrated cells (checkerboard analysis)", "setting": "[1]; lower 1 ng/ml, upper 0 ng/ml", "result": "90.0 +/− 5.776"}, {"measurement": "migrated cells (checkerboard analysis)", "setting": "[1]; lower 1 ng/ml, upper 0.1 ng/ml", "result": "27.7 +/− 8.10"}, {"measurement": "migrated cells (checkerboard analysis)", "setting": "[1]; lower 1 ng/ml, upper 1 ng/ml", "result": "52.6 +/− 2.775"}, {"measurement": "migrated cells (checkerboard analysis)", "setting": "[1]; lower 1 ng/ml, upper 10 ng/ml", "result": "9.7 +/− 3.553"}, {"measurement": "migrated cells (checkerboard analysis)", "setting": "[1]; lower 1 ng/ml, upper 100 ng/ml", "result": "1.83 +/− 2.2"}, {"measurement": "migrated cells (checkerboard analysis)", "setting": "[1]; lower 10 ng/ml, upper 0 ng/ml", "result": "92.4 +/− 29.307"}, {"measurement": "migrated cells (checkerboard analysis)", "setting": "[1]; lower 10 ng/ml, upper 0.1 ng/ml", "result": "55.1 +/− 7.151"}, {"measurement": "migrated cells (checkerboard analysis)", "setting": "[1]; lower 10 ng/ml, upper 1 ng/ml", "result": "44.2 +/− 11.844"}, {"measurement": "migrated cells (checkerboard analysis)", "setting": "[1]; lower 10 ng/ml, upper 10 ng/ml", "result": "16.2 +/− 4.781"}, {"measurement": "migrated cells (checkerboard analysis)", "setting": "[1]; lower 10 ng/ml, upper 100 ng/ml", "result": "21.2 +/− 6.42"}, {"measurement": "migrated cells (checkerboard analysis)", "setting": "[1]; lower 100 ng/ml, upper 0 ng/ml", "result": "65.4 +/− 22.055"}, {"measurement": "migrated cells (checkerboard analysis)", "setting": "[1]; lower 100 ng/ml, upper 0.1 ng/ml", "result": "53.7 +/− 7.3118"}, {"measurement": "migrated cells (checkerboard analysis)", "setting": "[1]; lower 100 ng/ml, upper 1 ng/ml", "result": "54.9 +/− 18.599"}, {"measurement": "migrated cells (checkerboard analysis)", "setting": "[1]; lower 100 ng/ml, upper 10 ng/ml", "result": "49.166 +/− 9.152"}, {"measurement": "migrated cells (checkerboard analysis)", "setting": "[1]; lower 100 ng/ml, upper 100 ng/ml", "result": "4.66 +/− 3.3"}]}]}
